Reference: article PMC4019984, “Kinase and channel activity of TRPM6 are co-ordinated by a dimerization motif and pocket interaction” (Biochemical Journal, 2014)

Columns and labels:
[1] = test system: GST-tagged TRPM6-(1730–end) L1743A; assay: Peptide pull-down, L1743A mutant; assay type: binding, human; conditions: HEK-293 lysate, 3 μg peptide, 4°C, anti-GST immunoblot
Procedure: (§1) The peptides biotin-C6-[…]-TIPFTPVQLFAGEEITV (wild-type) and biotin-C6-LKSPQE-[…] (mutant) were purchased from GL Biochem. For a peptide pull-down, 1–5 mg of lysate was incubated with 3 μg of the respective peptide for 10 min at 4°C under gentle agitation, followed by 5 min of incubation with 10–20 μl of streptavidin beads at 4°C. The immunoprecipitates were washed three times with lysis buffer containing 0.15 M NaCl and then twice with buffer A. Proteins were eluted by resuspending washed immunoprecipitates in 30 μl of SDS sample buffer. […]
(§2) Figure 3 Analysis of the dimerization pocket residues (A) Structural model of TRPM6 based on TRPM7 α-kinase depicting the binding of Leu^1718 and Leu^1721 to other residues in the α-kinase domain. […] The samples were analysed by immunoblotting with anti-GST antibody (top panel). […] (C) Fluorescence polarization analysis of the dimerization motif peptide with E. coli purified GST-tagged TRPM6-(1730–end) and indicated mutants. […] Proteins were separated by SDS/PAGE, stained with Coomassie Blue (top and middle panels) and MBP phosphorylation was detected by autoradiography (bottom panel). […] Proteins were separated by SDS/PAGE, stained with Coomassie Blue (top and middle gels) and MBP phosphorylation was detected by autoradiography (bottom gel). […]

[2] = test system: GST-tagged TRPM6-(1730–end) L1919Q; assay: Peptide pull-down, L1919Q mutant; assay type: binding, human; conditions: HEK-293 lysate, 3 μg peptide, 4°C, anti-GST immunoblot
Procedure: as §1, §2

[3] = test system: GST-tagged TRPM6-(1700–end); assay: Phosphorylation site mapping of the dimerization peptide by TRPM6 kinase; assay type: biochemical, human; conditions: 500 μM biotinylated peptide, in vitro, trypsin digest, HPLC, Edman solid-phase sequencing
Procedure: A kinase reaction was set up in a volume of 20 μl, with the wild-type biotinylated dimerization peptide and the active (residues 1700–end) kinase fragment in buffer A containing 0.1% 2-mercaptoethanol, 10 mM MgCl2 and 0.1 mM [γ-^32P]ATP (~1000 cpm·pmol^−1). Assays were carried out for 30 min at 30°C with shaking at […] The reaction was terminated by the addition of LDS sample buffer. DTT was added to a final concentration of 10 mM, the samples were boiled, then alkylated with 50 mM iodoacetamide and subsequently resolved by a Bis-Tris 4–12% polyacrylamide gel, which was stained with Colloidal Coomassie Blue. […] Following tryptic digestion, more than 95% of the ^32P radioactivity incorporated in the gel bands was recovered, and the samples were chromatographed on a Vydac 218TP5215 C18 column (Separations Group) equilibrated in 0.1% trifluoroacetic acid in water. The column was developed with a linear acetonitrile gradient at a flow rate of 0.2 ml/min and fractions of 0.1 ml were collected and analysed for ^32P radioactivity by Cerenkov counting. Isolated phosphopeptides were analysed by MS analysis as follows. […] The five most intense ions, above a specified minimum signal threshold, based on a low-resolution (R=20000) preview of the survey scan, were fragmented by collision-induced dissociation and recorded in the linear ion trap (target value of 5000). […]

Substance: biotin-C6-LKSPQEPHHHYSAIERNNLMRLSQ-TIPFTPVQLFAGEEITV [biotinylated dimerization motif peptide, biotin-C6 wild-type dimerization motif peptide; conjugated to streptavidin–Sepharose]
- binding to biotinylated dimerization motif peptide (pull-down) [1]: abolished binding to the peptide
- binding to biotinylated dimerization motif peptide (pull-down) [2]: abolished binding to the peptide
- phosphorylation site in dimerization motif peptide [3]: threonine at position 22
